SMILES strings stand for the structures. Where “and” joins values, the source holds several entries; their conditions need not be identical. Equal values may be shown once. A value given as a limit tells only on which side of the number the result lay.

Among the data in US8946197B2, “Transglutaminase TG2 inhibitors, pharmaceutical compositions, and methods of use thereof” (CHDI Foundation, Inc., priority 2009, dated 2015) are IC50 values, retold here.

The experiment concerns the target T1, human TG2 (Homo sapiens, UniProt P21980).
T1 sequence (P21980 1-687): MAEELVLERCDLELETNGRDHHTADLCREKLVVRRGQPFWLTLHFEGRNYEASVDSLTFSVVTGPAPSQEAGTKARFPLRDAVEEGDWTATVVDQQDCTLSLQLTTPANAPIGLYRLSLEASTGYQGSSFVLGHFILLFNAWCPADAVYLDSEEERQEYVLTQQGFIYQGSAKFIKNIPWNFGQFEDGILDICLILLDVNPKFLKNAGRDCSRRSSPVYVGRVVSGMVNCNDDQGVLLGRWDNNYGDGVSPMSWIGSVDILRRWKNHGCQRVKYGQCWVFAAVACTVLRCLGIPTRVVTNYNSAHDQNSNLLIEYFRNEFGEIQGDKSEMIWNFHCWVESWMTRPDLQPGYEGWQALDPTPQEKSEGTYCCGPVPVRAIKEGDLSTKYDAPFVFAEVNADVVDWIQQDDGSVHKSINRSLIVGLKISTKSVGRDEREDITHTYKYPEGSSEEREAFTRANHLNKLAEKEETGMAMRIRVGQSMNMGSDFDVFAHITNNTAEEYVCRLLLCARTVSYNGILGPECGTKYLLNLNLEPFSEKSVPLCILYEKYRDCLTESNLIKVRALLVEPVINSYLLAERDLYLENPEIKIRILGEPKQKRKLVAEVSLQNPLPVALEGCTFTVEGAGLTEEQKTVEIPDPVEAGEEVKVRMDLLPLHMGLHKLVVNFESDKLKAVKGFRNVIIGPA
The experiment can be described thus: fluorescent screening assay for human TG2. Type of experiment: biochemical. As to conditions: 20 nM TG2, 8 μM N,N-dimethylated Casein, 16 μM KxD, pH 7.4, 37° C. The essentials:
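20 nM TG2 with 8 μM N,N-dimethylated casein and 16 μM K×D in 25 mM Hepes pH 7.4, 250 mM NaCl, 2 mM MgCl2, 0.5 mM CaCl2, 0.2 mM DTT, 0.05% Pluronic F-127 at 37° C. Fluorescence (ex 350, em 535 nm) was read every 3 min for up to 2 h. Initial linear velocity served as activity.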
Consider `C=CC(=O)Nc1ccc(S(=O)(=O)N2CCN(C(=O)NC3C4CC5CC(C4)CC3C5)CC2)cc1` (stereo not drawn) [4-(4-Acryloylamino-benzenesulfonyl)-piperazine-1-carboxylic acid adamantan-2-ylamide], for which the IC50 (commonly the point on the concentration scale where inhibition reaches its midpoint) is 100 to 1000 nM and < 100 nM.
Regarding `C=CC(=O)Nc1ccc(S(=O)(=O)N2CCN(C(=O)OC(C)(C)C)CC2)c(Cl)c1` [4-(4-Acryloylamino-2-chloro-benzenesulfonyl)-piperazine-1-carboxylic acid tert-butyl ester], the 50% inhibitory concentration (IC50) is 100 to 1000 nM and < 100 nM.
`C=CC(=O)Nc1ccc(S(=O)(=O)N2CCNCC2)c(OC)c1` [N-[3-Methoxy-4-(piperazine-1-sulfonyl)-phenyl]-acrylamide] had a concentration for half-maximal inhibition (IC50) of 1000 to 25000 nM.
As to `C=CC(=O)Nc1ccc(S(=O)(=O)N2CCN(c3nccc(C(F)(F)F)n3)CC2)cc1` [N-{4-[4-(4-Trifluoromethyl-pyrimidin-2-yl)-piperazine-1-sulfonyl]-phenyl}-acrylamide], the half-inhibitory concentration (IC50) is < 100 nM and 100 to 1000 nM.
Take `C=CC(=O)Nc1ccc(S(=O)(=O)N2CCN(c3cccc4nc(C)ccc34)CC2)cc1` [N-{4-[4-(2-Methyl-quinolin-5-yl)-piperazine-1-sulfonyl]-phenyl}-acrylamide]: the IC50 is < 100 nM and 100 to 1000 nM.
In the case of `C=CC(=O)Nc1ccc(S(=O)(=O)N2CCN(C(=O)OC(C)(C)C)CC2)c(OC)c1` [4-(4-Acryloylamino-2-methoxy-benzenesulfonyl)-piperazine-1-carboxylic acid tert-butyl ester], the IC50 was in the range of 1000 to 25000 nM.
With `C=CC(=O)Nc1ccc(S(=O)(=O)N2CCC(N(C)C(=O)C34CC5CC(CC(C5)C3)C4)CC2)cc1` [Adamantane-1-carboxylic acid [1-(4-acryloylamino-benzenesulfonyl)-piperidin-4-yl]-methyl-amide] the figure was 100 to 1000 nM and < 100 nM; with `C=CC(=O)Nc1ccc(S(=O)(=O)N2CCN(c3ccccn3)CC2)cc1` [N-[4-(4-Pyridin-2-yl-piperazine-1-sulfonyl)-phenyl]-acrylamide], 100 to 1000 nM and < 100 nM; with `C=CC(=O)Nc1ccc(S(=O)(=O)N2CCN(C(=O)Cc3ccc4ccccc4c3)CC2)cc1` [N-{4-[4-(2-Naphthalen-2-yl-acetyl)-piperazine-1-sulfonyl]-phenyl}-acrylamide], 100 to 1000 nM and < 100 nM.
Turning to `C=CC(=O)Nc1ccc(S(=O)(=O)N2CCN(c3nc(C)cc(C)n3)CC2)cc1` [N-{4-[4-(4,6-Dimethyl-pyrimidin-2-yl)-piperazine-1-sulfonyl]-phenyl}-acrylamide], the IC50 is < 100 nM and 100 to 1000 nM.
With `C=CC(=O)Nc1ccc(S(=O)(=O)N2CCN(C(=O)OC(C)(C)C)C(c3ccco3)C2)cc1` (stereo not drawn) [4-(4-Acryloylamino-benzenesulfonyl)-2-furan-2-yl-piperazine-1-carboxylic acid tert-butyl ester] the figure was 100 to 1000 nM and < 100 nM; with `C=CC(=O)Nc1ccc(S(=O)(=O)N2CCN(C(=O)OCc3cc(F)cc(F)c3)CC2)cc1` [4-(4-Acryloylamino-benzenesulfonyl)-piperazine-1-carboxylic acid 3,5-difluoro-benzyl ester], 100 to 1000 nM and < 100 nM.
